In PubChem BioAssay (NCI):
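All cell lines were grown in 96-well plates and treated with compound for 48 hours. Here, GI50 denotes the concentration required for 50% inhibition of growth. At the TGI there is no net growth.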

What was measured:
Assay in all cases: growth of human tumour cells (NCI), 48 h
MOLT-4 leukemia = system: MOLT-4 leukemia
SW-620 colon = system: SW-620 colon
SK-MEL-28 melanoma = system: SK-MEL-28 melanoma
OVCAR-8 ovarian = system: OVCAR-8 ovarian
RPMI-8226 leukemia = system: RPMI-8226 leukemia
IGROV1 ovarian = system: IGROV1 ovarian
SK-OV-3 ovarian = system: SK-OV-3 ovarian
UACC-257 melanoma = system: UACC-257 melanoma
SF-268 CNS = system: SF-268 CNS
HCT-116 colon = system: HCT-116 colon

Row | SMILES | GI50 (MOLT-4 leukemia) [µM] | TGI (MOLT-4 leukemia) [µM] | GI50 (SW-620 colon) [µM] | TGI (SW-620 colon) [µM] | GI50 (SK-MEL-28 melanoma) [µM] | TGI (SK-MEL-28 melanoma) [µM] | GI50 (OVCAR-8 ovarian) [µM] | TGI (OVCAR-8 ovarian) [µM] | GI50 (RPMI-8226 leukemia) [µM] | TGI (RPMI-8226 leukemia) [µM] | GI50 (IGROV1 ovarian) [µM] | TGI (IGROV1 ovarian) [µM] | GI50 (SK-OV-3 ovarian) [µM] | TGI (SK-OV-3 ovarian) [µM] | GI50 (UACC-257 melanoma) [µM] | TGI (UACC-257 melanoma) [µM] | GI50 (SF-268 CNS) [µM] | TGI (SF-268 CNS) [µM] | GI50 (HCT-116 colon) [µM] | TGI (HCT-116 colon) [µM]
1 | CC[C@H](CO)Nc1nc(NCc2ccccc2)n2ncc(C(C)C)c2n1 | 2.18 | 9.46 | 1.38 | 5.56 | 1.16 | 3.82 | 2.15 | 54.8 | 2.23 | 6.93 | 0.782 | > 100 | 5.55 | 40.2 | 3.56 | 15 | 1.82 | 7.2 | 0.51 | 15
2 | Cc1ccc(S(=O)(=O)Nc2cccc3[nH]c(C(F)(F)F)nc23)cc1 | 0.605 | 29 | 0.382 | > 100 | 0.654 | > 92.8 | 1.22 | > 47.8 | 0.772 | 13.7 | 0.832 | > 100 | 1.34 | 25 | 1.32 | > 42 | 1.87 | 54.6 | 0.414 | > 100
3 | COc1c2c(nc3ccccc13)-c1cc3c(c(=O)n1C2)COC(=O)C3(O)CC(=O)N1CCOCC1 (stereo not given) |  | 5.03 |  | > 100 |  | > 98.2 |  | 33.8 |  | 82 |  | 98.7 |  | 68.3 |  | 98.4 |  | 26.7 |  | 38.5
4 | CN(/N=C/c1cccc2cccnc12)c1ccccc1 |  | > 100 |  | > 100 |  | > 100 |  | > 100 |  | > 100 |  | > 100 |  | > 100 |  | > 100 |  | > 100 |  | 
5 | O=C(Nc1cccc(NC(=O)Nc2cc(C(F)(F)F)ccc2Cl)c1)Nc1cc(C(F)(F)F)ccc1Cl | 5.19 | > 100 | 3.28 | > 100 | 2.84 | 15.4 | 2.05 | 15.7 | 1.87 | 50.7 | 3.52 | 18.8 | 2.9 | 11.3 | 4.29 | 41.4 | 5.19 | 34.2 | 2.41 | 22.8
6 | CS[C@]12C(=O)C[C@@]3(C)[C@@H](CC[C@]3(O)C(=O)CO)[C@@H]1CCC1=CC(=O)CC[C@@]12C |  | > 100 |  | > 100 |  | > 100 |  | > 100 |  | > 100 |  | > 100 |  | > 100 |  | > 100 |  | > 100 |  | > 100
7 | C[C@]12CCC3[C@@H](CC[C@@H]4c5nonc5CC[C@]34C)C1C/C(=N/O)C2=O (stereo not given in full) |  | > 100 |  | > 100 |  | > 100 |  | > 100 |  | > 100 |  | > 100 |  | > 100 |  | > 100 |  | > 100 |  | > 100
8 | CC[N+]1(C)CCC(O)(c2ccc(Cl)c(Cl)c2)C(C(=O)c2ccc(Cl)c(Cl)c2)C1 (stereo not given) |  | > 10 |  | > 10 |  | > 10 |  | > 10 |  | > 10 |  | > 10 |  | > 10 |  | > 10 |  | > 10 |  | > 10
9 | COC(=O)CCC(NC(=S)N/N=C/c1ccco1)C(=O)OC (stereo not given) |  |  |  | > 100 |  | > 100 |  | > 100 |  |  |  | > 100 |  | > 100 |  | > 100 |  | > 100 |  | > 100
10 | O=S1(=O)OCCOS(=O)(=O)C1Cc1ccccc1 |  | > 100 |  | > 100 |  | > 100 |  | > 100 |  | 69.2 |  | 93.3 |  | > 100 |  | > 100 |  | > 100 |  | > 100
11 | CCc1cccc(C)c1NC(=O)C(=O)Cc1nc2ccccc2s1 |  | > 100 |  | > 100 |  | > 100 |  | > 100 |  |  |  | 20.8 |  | > 100 |  | > 100 |  | > 100 |  | > 100
12 | COc1ccc(/C=C2\S/C(=N/Nc3nc(-c4ccccc4)cs3)NC2=O)cc1OC |  | 20.6 |  | > 100 |  | 69.9 |  | 47.5 |  |  |  | 44.2 |  | 63.7 |  | > 100 |  | > 100 |  | 41.6
13 | COc1ccc(OC)c(NC(=O)CCC/C(CC(=O)c2ccc(O)c(OC)c2)=N\Nc2ccc([N+](=O)[O-])cc2)c1 |  | > 100 |  | > 100 |  |  |  | > 100 |  | > 100 |  | > 100 |  | > 100 |  | > 100 |  | > 100 |  | > 100
14 | COc1ccc(C(=O)C(c2ccc(OC)cc2)C2(O)C(=O)Nc3c2ccc(Cl)c3C)cc1 (stereo not given) |  | > 100 |  | > 100 |  | > 100 |  | > 100 |  | > 100 |  | > 100 |  | > 100 |  | > 100 |  | > 100 |  | > 100
15 | COc1ccc(C(=O)c2cc3c(N)c(C(=O)Nc4cccc5ccccc45)sc3nc2C)cc1 | 0.308 | > 50 | 0.203 | > 50 | > 50 | > 50 | 0.285 | > 50 | 0.184 |  | 0.268 | > 50 | 0.429 | > 50 | > 50 | > 50 | 0.529 | > 50 | 0.18 | > 18.9
16 | C1=C2/CC[C@H](Sc3ccccc3)[C@H]2C2(CCCCC/1)OCCO2 |  |  |  | > 100 |  | > 100 |  | > 100 |  | 83.1 |  | > 100 |  | > 100 |  | 55 |  | > 100 |  | > 100
17 | CC(C)c1cccc2sc(NC(=O)C(=O)C(C#N)c3cccc4ccccc34)nc12 (stereo not given) |  | > 100 |  | > 100 |  | > 100 |  | > 100 |  |  |  | > 100 |  | > 100 |  | > 100 |  | > 100 |  | > 100
18 | CCSCCCN(CCCSCC)CCCSCC |  | > 100 |  | > 100 |  | > 100 |  | > 100 |  |  |  | > 100 |  | > 100 |  | > 100 |  | > 100 |  | > 100
